Experimental data: paper PMC7179653 (Antimicrobial Agents and Chemotherapy, 2020)
Like-named read-outs stand apart in the source and are kept apart here.

What was measured:
[1] = set-up: method as in PMID 25813217, PMID 29914955, PMID 27527080, PMID 29437614; settings: healthy individuals; cited from earlier work
clinical = settings: human, in vivo
Protocol: All participants in the active group received a single 2,000-mg dose of both drugs on day 3 and q8h on days 4 to 8, with a final single dose of both drugs on the morning of day 9. A washout period of approximately 24 h between treatments was provided. Study treatments were administered as 30-min (SAD study) or 90-min (MAD study) i.v. infusions, the latter to investigate the pharmacokinetics using a longer infusion time, which is commonly used to increase the time above the MIC of β-lactams ([15]). The choice of a 90-min infusion time for the MAD study was dictated by the stability and toxicology data available at the time the study was being designed. […] Safety assessments included monitoring of AEs, laboratory safety tests (hematology, serum chemistry, and urinalysis), 12-lead ECG (discrete recordings and 24-h Holter recording), and vital signs (blood pressure, pulse rate, and body temperature). In the SAD study, safety assessments were performed predose at screening, at day 1, postdose periodically on days 1, 2, and 7 (follow-up), and at early withdrawal, if relevant. […] In the MAD study, safety assessments were done predose at screening, at day 2, postdose periodically on days 1, 2, 4, 7, and 8, on days 13 to 15 (follow-up), and at early withdrawal, if relevant. […] On all other days, a single predose sample was collected for pharmacokinetic evaluation prior to the morning infusion. Blood was collected into lithium-heparin tubes and stored at a nominal –80°C temperature until analysis.

Compound: NC(=O)[C@@H]1CC[C@@H]2CN1C(=O)N2OS(=O)(=O)O [avibactam]
- half-life [1]: approximately 2 h

Compound: C[C@@H](O)[C@H]1C(=O)N2C(C(=O)O)=C(S[C@@H]3CN[C@H](C(=O)N(C)C)C3)[C@H](C)[C@H]12 [meropenem]
- Tmax (clinical): 1 h
- clearance (clinical; CL): 253 mL/min
- CL renal (clinical; CLr): 161 mL/min
- Vd (clinical; Vdss): 19.8 L
- half-life (clinical; t1/2): 1.3 h

Compound: O=C(NC1CCNCC1)[C@@H]1CC[C@@H]2CN1C(=O)N2OS(=O)(=O)O [relebactam]
- half-life [1]: approximately 2 h

Compound: O=C(O)C[C@@H]1CC[C@H](NC(=O)Cc2cccs2)B(O)O1 [vaborbactam]
- half-life [1]: approximately 2 h
